Laboratory results reported in patent US7449546B2, “Method for extending storage of glutathione solutions and methods for treating Parkinson's disease with said stored glutathione solutions” (Kromar Medical Corporation, priority 2001, dated 2008).
Where two headings read alike, the source gives them in different places.

Legend:
[1] = for [G-SH]/[G-SH]0: storage at 25° C.
Experimental: This solution was stored at room temperature (25° C.) for 74 days.

[2] = for [G-SH]/[G-SH]0: storage at 5° C.
liver cancer = conditions: oral, daily amount of 5,000 mg, eight patients; cited from earlier work
[3] = solution temperature lowered by 20° C. from room temperature

concentration of reduced glutathione relative to its initial value ([1]; room temperature (25° C.), within three weeks, 180 mg/ml, pH 6.4): 90% | [G-SH]/[G-SH]0 ([1]; 1 day, 180 mg/ml, pH 6.4): 0.94 | [G-SH]/[G-SH]0 ([1]; 2 days, 180 mg/ml, pH 6.4): 0.99 | [G-SH]/[G-SH]0 ([1]; 3 days, 180 mg/ml, pH 6.4): 0.99 | [G-SH]/[G-SH]0 ([1]; 7 days, 180 mg/ml, pH 6.4): 0.98 | [G-SH]/[G-SH]0 ([1]; 14 days, 180 mg/ml, pH 6.4): 0.95 | [G-SH]/[G-SH]0 ([1]; 21 days, 180 mg/ml, pH 6.4): 0.90 | [G-SH]/[G-SH]0 ([1]; 28 days, 180 mg/ml, pH 6.4): 0.89 | [G-SH]/[G-SH]0 ([1]; 56 days, 180 mg/ml, pH 6.4): 0.78 | [G-SH]/[G-SH]0 ([1]; 74 days, 180 mg/ml, pH 6.4): 0.68 | dimerization of glutathione [2, 3]: essentially stopped | storage period of the reduced glutathione solution [2, 3]: significantly greater than four months | [G-SH]/[G-SH]0 ([2]; 1 day, 189 mg/ml, pH 6.4): 1.02 | [G-SH]/[G-SH]0 ([2]; 2 days, 189 mg/ml, pH 6.4): 1.01 | [G-SH]/[G-SH]0 ([2]; 3 days, 189 mg/ml, pH 6.4): 1.01 | [G-SH]/[G-SH]0 ([2]; 7 days, 189 mg/ml, pH 6.4): 1.02 | [G-SH]/[G-SH]0 ([2]; 14 days, 189 mg/ml, pH 6.4): 1.00 | [G-SH]/[G-SH]0 ([2]; 21 days, 189 mg/ml, pH 6.4): 0.99 | [G-SH]/[G-SH]0 ([2]; 28 days, 189 mg/ml, pH 6.4): 1.02 | [G-SH]/[G-SH]0 ([2]; 56 days, 189 mg/ml, pH 6.4): 1.00 | [G-SH]/[G-SH]0 ([2]; 84 days, 189 mg/ml, pH 6.4): 1.00 | [G-SH]/[G-SH]0 ([2]; 112 days, 189 mg/ml, pH 6.4): 0.98 | decrease of reduced glutathione concentration over time ([2]; stored at 5° C., monitored for four months, 189 mg/ml, 0.005M octylammonium orthophosphate, pH 6.4): no decrease over time
SMILES: N[C@@H](CCC(=O)N[C@@H](CS)C(=O)NCC(=O)O)C(=O)O [reduced glutathione]
safe storage time in aqueous solution ([1]; room temperature, absence of oxidation catalysts, criterion at least 90% of initial concentration): cannot be safely stored in aqueous solution at room temperature for longer than three weeks | effects in patients with liver cancer (liver cancer): modest effects in women but not in men
